{"source": "patent US11806344B2", "about": "“Pharmaceutical composition comprising mineralocorticoid receptor antagonist and use thereof” (priority 2016, dated 2023)", "key": {"[1]": {"system": "healthy subjects", "assay": "Safety, tolerability and pharmacokinetics in healthy subjects, multiple doses (Example 8)", "format": "in vivo, human", "conditions": "for average steady-state AUC0-24 (AUCtau): 14 days", "experimental": "(§1) Two groups of healthy subjects were given capsules once a day at daily doses of 2.5 mg (1 capsule for each administration, 2.5 mg of Compound I per capsule), and 5.0 mg (2 capsules for each administration, 2.5 mg of Compound I per capsule), respectively, each group containing 6 subjects. The administration continued for 14 consecutive days. The capsules used in this study were of Capsule formulation 4 prepared in Example 2.\n(§2) Plasma samples were collected to measure plasma drug concentration, and the pharmacokinetic parameters were analyzed using the non-compartment model. Serum samples were collected to measure serum potassium levels."}, "[2]": {"assay": "Safety, tolerability and pharmacokinetics in healthy subjects, multiple doses (Example 8)", "format": "in vivo, human", "conditions": "human, plasma, oral, healthy subjects, 14 days, read-out: average steady-state AUC0-24 (AUCtau)", "experimental": "as §1, §2"}, "[3]": {"system": "patients having chronic kidney disease", "assay": "Safety, tolerability and pharmacokinetics in patients having chronic kidney disease (Example 9)", "format": "in vivo, human", "conditions": "CKD patients; for UACR decreased: at the 8th week; for Predicated AUCtau: predicted from the 0.5 mg/day group", "from_the_text": "(§3) The patients in this example were those having chronic kidney disease with symptoms of renal failure, proteinuria, acute kidney injury, glomerular nephritis, renal cyst, urinary frequency, renal calculus, obstructive uropathy, and etc. These patients also had other diseases or implications such as diabetes mellitus, hyperlipidemia, hypercholesterolemia, hypertension, peripheral vascular diseases, coronary artery disease, and etc.\n(§4) These patients continued to take the medications that they had prior to the present clinical trial, the medications being, for example, angiotensin converting enzyme inhibitors, such as Lisinopril, Benazepril, Enalapril, and Enalapril Maleate; angiotensin II receptor blockers, such as Valsartan and Losartan; calcium channel blockers, such as Amlodipine, and Nifedipine; diuretics, such as Furosemide; beta-receptor blockers, such as Metoprolol succinate, Metoprolol tartrate, Carvedilol, and Atenolol; and antilipemic drugs, such as Simvastatin, Atorvastatin, Fenofibrate, Pravastatin, and Rosuvastatin.\n(§5) In this example, the administration dose referred to the amount of Compound I, although the pharmaceutical composition was administered. Two groups of subjects were administered once a day for 56 consecutive days at the daily doses of 0.5 mg (1 capsule for each administration, 0.5 mg of Compound I per capsule) and 2.5 mg (1 capsule for each administration, 2.5 mg of Compound I per capsule), respectively, with 6 subjects for the 0.5 mg/day dose group and also 6 for the 2.5 mg/day dose group. The capsules used here were the capsules prepared in Example 2, i.e., the capsules of Capsule formulation 3 (the capsule with 0.5 mg of Compound I), and Capsule formulation 4 (the capsule containing 2.5 mg of Compound I).\nas §2"}, "[4]": {"assay": "Safety, tolerability and pharmacokinetics in patients having chronic kidney disease (Example 9)", "format": "in vivo, human", "conditions": "human, plasma, oral, CKD patients", "from_the_text": "as §3, §4, §5, §2"}, "[5]": {"assay": "13-week toxicity and pharmacokinetic study in SD rats with 4-week recovery (Example 5)", "format": "in vivo", "conditions": "rat, in vivo; for AUC(0-t): SD, po, read-out: AUC0-24 h; for NOAEL at 13 weeks: oral, read-out: NOAEL (no observed adverse effect level)", "experimental": "(§6) Sample to test: Solid dispersion of Compound I (Compound I:PVPK30=1:8 (w/w))\n(§7) Animals: SD Rats, SPF Level.\n(§8) Two hundred and twenty SD rats were used in the studies. Three groups, i.e., high dose group, intermediate dose group and low dose group, were administered with Compound I with following doses, 20 males and 20 females for each group. In specific, male animals were given the suspension at the doses of 3, 9 and 30 mg/kg/day, respectively, while the females were administered at the doses of 1, 3, and 10 mg/kg/day, respectively. The animals in the control group, 20 males and 20 females, were given purified water. All animals fasted overnight before blood collections and anatomical examinations.\n(§9) In addition, for the pharmacokinetic study, 9 males and 9 females were assigned into the administration group, while 3 males and 3 females were for the control group."}, "[6]": {"system": "SD rats", "assay": "13-week toxicity and pharmacokinetic study in SD rats with 4-week recovery (Example 5)", "format": "in vivo", "conditions": "13 weeks", "experimental": "as §6, §7, §8, §9"}, "[7]": {"assay": "Absorption of capsules of Capsule formulation 5 in Beagle dogs (Example 3-4)", "format": "in vivo", "conditions": "dog, plasma; mean of four Beagle dogs, oral, 2.67 mg/kg; read-out: BA % (Mean, average bioavailability)", "experimental": "Capsule of Capsule formulation 5 as prepared in Example 2, 10 mg of Compound I per capsule.\nSolutions: 5% DMSO+95% (6% HP-β-CD solution)\nAnimals: Four Beagle Dogs.\n(1) Administration of capsules. All animals fasted for 12 h or longer before drug administration, and food was supplied 4 h after drug administration, with always ad libitum access to water. Beagle dogs were orally given the capsule of Capsule formulation 5 as prepared in Example 2 (two capsules for each Beagle, 10 mg of Compound I per capsule) in a single dose, and 200 μL of blood was collected for each animal, via the small saphenous vein, immediately prior to the administration (0 h) and 0.17 h, 0.50 h, 0.75 h, 1.0 h, 2.0 h, 4.0 h, 6.0 h, 8.0 h, 12 h and 24 h after the administration. The collected blood was stored in a dry tube with heparin (normal saline containing 0.1% heparin sodium). (2) Plasma preparation. The whole blood samples collected in step (1) were subject to centrifugation at a low speed (8000 r/min, 6 min, 4° C.) to separate the plasma (the whole blood was stored in a mobile freezer at about 0 to 4° C., and plasma had to be separated within 30 minutes after the blood collection), and the plasma was kept in dark in a freezer at −70° C. (or lower) for future analysis."}, "[8]": {"conditions": "healthy subjects, multiple doses 2.5 mg/day"}}, "note": "Entries after “also recorded” stand apart in the source; their conditions may differ. Like-named read-outs stand apart in the source and are kept apart here.", "data": [{"smiles": "N#Cc1ccc(N2N=C3c4ccc(C(=O)N5CCC(O)CC5)nc4CC[C@@H]3[C@@H]2C2CCCC2)cc1Cl", "note": "[Compound I, 2-chloro-4-[(3S,3aR)-3-cyclopentyl-7-(4-hydroxylpiperidine-1-carbonyl)-3,3a,4,5-tetrahydro-2H-pyrazolo[3,4-f]quinolin-2-yl]benzonitrile]", "values": [{"measurement": "serum potassium level (observation)", "setting": "[1]; healthy subjects (6), multiple doses 5.0 mg/day", "value": "transient elevated serum potassium level observed in three subjects; also recorded: elevated serum potassium levels were observed in 3 subjects but were transient"}, {"measurement": "serum potassium level (observation)", "setting": "[1]; [8]", "value": "no elevated serum potassium level observed; also recorded: elevated serum potassium levels were not observed"}, {"measurement": "average steady-state AUC0-24 (AUCtau)", "setting": "[1]; [8]", "value": "2863 ± 822", "unit": "ng·h/mL"}, {"measurement": "average steady-state AUC0-24 (AUCtau)", "setting": "[1]; healthy subjects, multiple doses 5.0 mg/day", "value": "6373 ± 1026", "unit": "ng·h/mL"}, {"measurement": "AUC individual variation: highest AUC vs lowest AUC subject", "setting": "[1]; healthy volunteers, capsule, multiple doses 2.5 mg daily", "value": 2.37, "unit": "times"}, {"measurement": "AUC(0-t)", "setting": "[2]; 2.5 mg/day, multiple doses 2.5 mg/day", "value": "2860 ± 821", "unit": "ng·h/mL"}, {"measurement": "AUC(0-t)", "setting": "[2]; 5 mg/day, multiple doses 5.0 mg/day", "value": "6380 ± 1030", "unit": "ng·h/mL"}, {"measurement": "UACR decreased", "setting": "[3]; 0.5 mg/day", "value": 58.9, "unit": "%"}, {"measurement": "UACR decreased", "setting": "[3]; 2.5 mg/day", "value": 50.7, "unit": "%"}, {"measurement": "UACR decreased compared to the baseline", "setting": "[3]; administered for one day at 0.5 mg/day", "value": "≥ 30.5", "unit": "%"}, {"measurement": "AUC individual variation: highest AUC vs lowest AUC subject", "setting": "[3]; capsule, multiple doses 2.5 mg daily", "value": 2.27, "unit": "times"}, {"measurement": "AUC individual variation: highest AUC vs lowest AUC subject", "setting": "[3]; capsules, multiple doses 0.5 mg daily", "value": 2.14, "unit": "times"}, {"measurement": "Predicated AUCtau", "setting": "[3]; dose 0.1 mg", "value": 130.5, "unit": "ng·h/mL"}, {"measurement": "Predicated AUCtau", "setting": "[3]; dose 0.15 mg", "value": 195.8, "unit": "ng·h/mL"}, {"measurement": "Predicated AUCtau", "setting": "[3]; dose 0.2 mg", "value": 261, "unit": "ng·h/mL"}, {"measurement": "Predicated AUCtau", "setting": "[3]; dose 0.25 mg", "value": 326.3, "unit": "ng·h/mL"}, {"measurement": "Predicated AUCtau", "setting": "[3]; dose 0.3 mg", "value": 391.5, "unit": "ng·h/mL"}, {"measurement": "Predicated AUCtau", "setting": "[3]; dose 1.0 mg", "value": 1305, "unit": "ng·h/mL"}, {"measurement": "Predicated AUCtau", "setting": "[3]; dose 2.0 mg", "value": 2610, "unit": "ng·h/mL"}, {"measurement": "Predicated AUCtau", "setting": "[3]; dose 2.5 mg", "value": 3262.5, "unit": "ng·h/mL"}, {"measurement": "serum potassium level (observation)", "setting": "[3]; multiple doses 0.5 mg/day", "value": "no elevated serum potassium level was observed"}, {"measurement": "blood pressures and UACR (observation)", "setting": "[3]; multiple doses 0.5 mg/day or 2.5 mg/day", "value": "significantly decrease in blood pressures and urine albumin-to-creatinine ratio (UACR)"}, {"measurement": "serum potassium level (observation)", "setting": "[3]; multiple doses 2.5 mg/day", "value": "serum potassium levels were elevated; also recorded: mild increase of the serum potassium level was observed in one subject; also recorded: In one subject, the serum potassium level slightly increased"}, {"measurement": "AUC", "setting": "[4]; 0.5 mg, mean AUC plus the standard deviation at 0.5 mg, read-out: upper limit of AUC that is safe", "value": 885, "unit": "ng·h/mL"}, {"measurement": "AUC", "setting": "[4]; 0.5 mg, mean AUC plus twice the standard deviation at 0.5 mg, read-out: upper limit of AUC that is safe", "value": 1120, "unit": "ng·h/mL"}, {"measurement": "AUC", "setting": "[4]; 0.5 mg/day, administered for one day at 0.5 mg/day, read-out: steady-state AUCtau", "value": "≥ 106", "unit": "ng·h/mL"}, {"measurement": "AUC", "setting": "[4]; 0.5 mg/day, multiple doses 0.5 mg/day, read-out: average steady-state AUCtau", "value": "652 ± 232", "unit": "ng·h/mL"}, {"measurement": "AUC", "setting": "[4]; 2.5 mg, mean AUC plus the standard deviation at 2.5 mg, read-out: upper limit of AUC that is safe", "value": 2890, "unit": "ng·h/mL"}, {"measurement": "AUC", "setting": "[4]; 2.5 mg, mean AUC plus twice the standard deviation at 2.5 mg, read-out: upper limit of AUC that is safe", "value": 3170, "unit": "ng·h/mL"}, {"measurement": "AUC", "setting": "[4]; 2.5 mg/day, multiple doses 2.5 mg/day, read-out: average safe steady-state AUCtau", "value": "2610 ± 280", "unit": "ng·h/mL"}, {"measurement": "AUC(0-t)", "setting": "[5]; female, 1 mg/kg/day, female SD rats, 1 mg/kg/day intragastric, 13 weeks", "value": 4080, "unit": "ng·h/mL"}, {"measurement": "AUC(0-t)", "setting": "[5]; female, 3 mg/kg/day, female SD rats, 3 mg/kg/day intragastric, 13 weeks", "value": 15500, "unit": "ng·h/mL"}, {"measurement": "AUC(0-t)", "setting": "[5]; female, 10 mg/kg/day, female SD rats, 10 mg/kg/day intragastric, 13 weeks", "value": 43600, "unit": "ng·h/mL"}, {"measurement": "AUC(0-t)", "setting": "[5]; male, 3 mg/kg/day, male SD rats, 3 mg/kg/day intragastric, 13 weeks", "value": 5430, "unit": "ng·h/mL"}, {"measurement": "AUC(0-t)", "setting": "[5]; male, 9 mg/kg/day, male SD rats, 9 mg/kg/day intragastric, 13 weeks", "value": 16500, "unit": "ng·h/mL"}, {"measurement": "AUC(0-t)", "setting": "[5]; male, 30 mg/kg/day, male SD rats, 30 mg/kg/day intragastric, 13 weeks (steady-state)", "value": 49900, "unit": "ng·h/mL"}, {"measurement": "NOAEL at 13 weeks", "setting": "[5]; female SD rats, 13 weeks", "value": 10, "unit": "mg/kg/day"}, {"measurement": "NOAEL at 13 weeks", "setting": "[5]; male SD rats, 13 weeks", "value": 30, "unit": "mg/kg/day"}, {"measurement": "serum potassium level (observation)", "setting": "[6]; SD rats, high dose/NOAEL (male 30, female 10 mg/kg/day)", "value": "no obvious abnormal serum potassium level was observed; also recorded: serum potassium level was not elevated"}, {"measurement": "K+ (Mean ± SD)", "setting": "[6]; female SD rats, 1 mg/kg/day intragastric", "value": "4.4 ± 0.4", "unit": "mmol/L"}, {"measurement": "K+ (Mean ± SD)", "setting": "[6]; female SD rats, 3 mg/kg/day intragastric", "value": "4.4 ± 0.3", "unit": "mmol/L"}, {"measurement": "K+ (Mean ± SD)", "setting": "[6]; female SD rats, 10 mg/kg/day intragastric", "value": "4.5 ± 0.2", "unit": "mmol/L"}, {"measurement": "K+ (Mean ± SD)", "setting": "[6]; male SD rats, 3 mg/kg/day intragastric", "value": "5.0 ± 0.3", "unit": "mmol/L"}, {"measurement": "K+ (Mean ± SD)", "setting": "[6]; male SD rats, 9 mg/kg/day intragastric", "value": "5.0 ± 0.3", "unit": "mmol/L"}, {"measurement": "K+ (Mean ± SD)", "setting": "[6]; male SD rats, 30 mg/kg/day intragastric", "value": "5.1 ± 0.2", "unit": "mmol/L"}, {"measurement": "side effects (observation)", "setting": "[6]; male SD rats, high dose 30 mg/kg/day", "value": "No obvious side effect was observed"}, {"measurement": "bioavailability", "setting": "[7]", "value": 56.5, "unit": "%"}]}]}
